What was measured:
Type in all cases: cell-based
Lovo cells (G13D) = experiment: Cell viability assay (CellTiter-Glo), Lovo cells; details: Homo sapiens, 72 h; Lovo cells, 3 days incubation, CellTiter-Glo luminescence; read-out: Inhibition of Cancerous Cells IC50 Lovo (G13D)
Summary of the method: (§1)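 Viability is measured by CellTiter-Glo luminescence following a 3-day compound incubation at 37 °C in medium with 2.5% FBS.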

SW480 cells (G12V) = experiment: Cell viability assay (CellTiter-Glo), SW480 cells; details: Homo sapiens, 72 h; SW480 cells, 3 days incubation, CellTiter-Glo luminescence; read-out: Inhibition of Cancerous Cells IC50 SW480 (G12V)
Summary of the method: as §1

SW48 cells (wt) = experiment: Cell viability assay (CellTiter-Glo), SW48 cells; details: Homo sapiens, 72 h; SW48 cells, 3 days incubation, CellTiter-Glo luminescence; read-out: Inhibition of Cancerous Cells IC50 SW48 (wt)
Summary of the method: as §1

AsPC-1 cells (G12D) = experiment: Cell viability assay (CellTiter-Glo), AsPC-1 cells; details: Homo sapiens, ASPC1, 72 h, 3 days incubation, CellTiter-Glo luminescence, read-out: Inhibition of Cancerous Cells IC50 AsPC-1 (G12D)
Method: H358, H23, SW48, and AsPC-1 cells were cultured in RPMI 1640 media supplemented with 10% fetal bovine serum, streptomycin, and penicillin. Lovo and SW480 cells were cultured in DMEM media supplemented with 10% fetal bovine serum, streptomycin, and penicillin. The cell lines were plated in their respective medium supplemented with 2.5% fetal bovine serum, streptomycin, and penicillin. All cell lines were plated in white walled 96-well plates at 2,000 cells/well or 384-well plates at 500 cells/well, except Lovo, which were plated at 4,000 or 1,000 cells/well, respectively. The cells were incubated in DMSO (control) or a compound for 3 days at 37° C. under 5% CO2. A CELLTITER-GLO® reagent (100 μL) was then added to each well. After a 10 min incubation with shaking, luminescence was measured using an ENVISION® multimode plate reader.

H358 cells (G12C) = experiment: Cell viability assay (CellTiter-Glo), H358 cells; details: Homo sapiens, NCI-H358, 72 h; H358 cells, 3 days incubation, CellTiter-Glo luminescence; read-out: Inhibition of Cancerous Cells IC50 H358 (G12C)
Summary of the method: as §1

SMILES	IC50 (Lovo cells (G13D)) [nM]	IC50 (SW480 cells (G12V)) [nM]	IC50 (SW48 cells (wt)) [nM]	IC50 (AsPC-1 cells (G12D)) [nM]	IC50 (H358 cells (G12C)) [nM]
CN[C@@H](C)C(=O)N[C@H](C(=O)N1CCC[C@H]1c1nc(C(=O)c2cccc(OCCCCCCCCOc3cc4nc(C)nc(N[C@H](C)c5cccc(Br)c5)c4cc3OC)c2)cs1)C1CCCCC1 [Compound B2, (S)—N—((S)-2-((S)-2-(4-(3-((8-((4-(((R)-1-(3-Bromophenyl)ethyl)amino)-6-methoxy-2-methylquinazolin-7-yl)oxy)octyl)oxy)benzoyl)thiazol-2-yl)pyrrolidin-1-yl)-1-cyclohexyl-2-oxoethyl)-2-(methylamino)propanamide]	480	500	980	1200	980
COc1cc2c(N[C@H](C)c3cccc(Br)c3)nc(C)nc2cc1OCCCCCCCCCCCCc1scc2c1CN(C1CCC(=O)NC1=O)C2=O (stereo partly drawn) [Compound A64, 3-(1-(12-((4-(((R)-1-(3-Bromophenyl)ethyl)amino)-6-methoxy-2-methyl-quinazolin-7-yl)oxy)dodecyl)-4-oxo-4H-thieno[3,4-c]pyrrol-5(6H)-yl)piperidine-2,6-dione]	2600	3100	1200	5500	> 10000
COc1cc2c(N[C@H](C)c3cccc(Br)c3)nc(C)nc2cc1OCCCCCCCCCCCNc1cccc2nc(C)n(C3CCC(=O)NC3=O)c(=O)c12 (stereo partly drawn) [Compound A46, 3-(5-((11-((4-(((R)-1-(3-Bromophenyl)ethyl)amino)-6-methoxy-2-methyl-quinazolin-7-yl)oxy)undecyl)amino)-2-methyl-4-oxoquinazolin-3(4H)-yl)piperidine-2,6-dione]	990	720	2700	> 10000	> 10000
COc1cc2c(N[C@H](C)c3cccc(Br)c3)nc(C)nc2cc1OCCCCCCC(=O)N1CCC(c2cc(F)cc3c2CN(C2CCC(=O)NC2=O)C3=O)CC1 (stereo partly drawn) [Compound A59, 3-(4-(1-(7-((4-(((R)-1-(3-Bromophenyl)ethyl)amino)-6-methoxy-2-methyl-quinazolin-7-yl)oxy)heptanoyl)piperidin-4-yl)-6-fluoro-1-oxoisoindolin-2-yl)piperidine-2,6-dione]	4900	4700	5300	> 10000	> 10000
COc1cc2c(N[C@H](C)c3cccc(Br)c3)nc(C)nc2cc1OCCCCN1CCN(C(=O)CNc2cc3c(cc2F)C(=O)N(C2CCC(=O)NC2=O)C3)CC1 (stereo partly drawn) [Compound A30, 3-(5-((2-(4-(4-((4-(((R)-1-(3-Bromophenyl)ethyl)amino)-6-methoxy-2-methyl-quinazolin-7-yl)oxy)butyl)piperazin-1-yl)-2-oxoethyl)amino)-6-fluoro-1-oxoisoindolin-2-yl)-piperidine-2,6-dione]	40	3900	640	7800	4200
CN[C@@H](C)C(=O)N[C@H](C(=O)N1C[C@@H](NC(=O)CCCCCCOc2cc3nc(C)nc(N[C@H](C)c4cccc(Br)c4)c3cc2OC)C[C@H]1C(=O)N[C@@H]1CCCc2ccccc21)C1CCCCC1 [Compound B5, (2S,4S)-4-(7-((4-(((R)-1-(3-bromophenyl)ethyl)amino)-6-methoxy-2-methyl-quinazolin-7-yl)oxy)heptanamido)-1-((S)-2-cyclohexyl-2-((S)-2-(methylamino)propanamido)-acetyl)-N—((R)-1,2,3,4-tetrahydronaphthalen-1-yl)pyrrolidine-2-carboxamide]	770	440	750	1500	650
COc1cc2c(N[C@H](C)c3cccc(Br)c3)nc(C)nc2cc1OCCCCCCCCNC(=O)[C@H](CC(C)C)NC(=O)[C@@H](O)[C@H](N)Cc1ccccc1 [Compound B7, (S)-2-((2S,3R)-3-Amino-2-hydroxy-4-phenylbutanamido)-N-(8-((4-(((R)-1-(3-bromophenyl)ethyl)amino)-6-methoxy-2-methylquinazolin-7-yl)oxy)octyl)-4-methylpentanamide]	680	610	920	1200	1300
CN[C@@H](C)C(=O)N[C@H](C(=O)N1CCC[C@H]1c1nc(C(=O)c2cccc(OCCCCCCCCCCCCOc3cc4nc(C)nc(N[C@H](C)c5cccc(Br)c5)c4cc3OC)c2)cs1)C1CCCCC1 [Compound B4, (S)—N—((S)-2-((S)-2-(4-(3-((12-((4-(((R)-1-(3-Bromophenyl)ethyl)amino)-6-methoxy-2-methylquinazolin-7-yl)oxy)dodecyl)oxy)benzoyl)thiazol-2-yl)pyrrolidin-1-yl)-1-cyclohexyl-2-oxoethyl)-2-(methylamino)propanamide]	4000	> 10000	> 10000	> 10000	7600
COc1cc2c(N[C@H](C)c3cccc(Br)c3)nc(C)nc2cc1OCCCCCCCNc1cccc2nc(C)n(C3CCC(=O)NC3=O)c(=O)c12 (stereo partly drawn) [Compound A47, 3-(5-((7-((4-(((R)-1-(3-Bromophenyl)ethyl)amino)-6-methoxy-2-methyl-quinazolin-7-yl)oxy)heptyl)amino)-2-methyl-4-oxoquinazolin-3(4H)-yl)piperidine-2,6-dione]	910	740	1400	3700	3000
COc1cc2c(N[C@H](C)c3cccc(Br)c3)nc(C)nc2cc1OCCCCN1CCN(C(=O)COc2cc3c(cc2F)C(=O)N(C2CCC(=O)NC2=O)C3)CC1 (stereo partly drawn) [Compound A29, 3-(5-(2-(4-(4-((4-(((R)-1-(3-Bromophenyl)ethyl)amino)-6-methoxy-2-methyl-quinazolin-7-yl)oxy)butyl)piperazin-1-yl)-2-oxoethoxy)-6-fluoro-1-oxoisoindolin-2-yl)-piperidine-2,6-dione]	730	5700	890	> 10000	6800
CN[C@@H](C)C(=O)N[C@H](C(=O)N1C[C@@H](NC(=O)CCCCCCCCCCOc2cc3nc(C)nc(N[C@H](C)c4cccc(Br)c4)c3cc2OC)C[C@H]1C(=O)N[C@@H]1CCCc2ccccc21)C1CCCCC1 [Compound B11, (2S,4S)-4-(11-((4-(((R)-1-(3-Bromophenyl)ethyl)amino)-6-methoxy-2-methyl-quinazolin-7-yl)oxy)undecanamido)-1-((S)-2-cyclohexyl-2-((S)-2-(methylamino)propanamido)-acetyl)-N—((R)-1,2,3,4-tetrahydronaphthalen-1-yl)pyrrolidine-2-carboxamide]	390	360	530	960	530
COc1cc2c(N[C@H](C)c3cccc(Br)c3)nc(C)nc2cc1OCCN1CCN(CCN2CCC(c3cc4c(cc3F)C(=O)N(C3CCC(=O)NC3=O)C4)CC2)CC1 (stereo partly drawn) [Compound A67, 3-(5-(1-(2-(4-(2-((4-(((R)-1-(3-Bromophenyl)ethyl)amino)-6-methoxy-2-methyl-quinazolin-7-yl)oxy)ethyl)piperazin-1-yl)ethyl)piperidin-4-yl)-6-fluoro-1-oxoisoindolin-2-yl)piperidine-2,6-dione]	1000	2700	1100	2100	1700
COc1cc2c(N[C@H](C)c3cccc(Br)c3)nc(C)nc2cc1OCCCCCCCCC(=O)N1CCC(c2cc(F)cc3c2CN(C2CCC(=O)NC2=O)C3=O)CC1 (stereo partly drawn) [Compound A61, 3-(4-(1-(9-((4-(((R)-1-(3-Bromophenyl)ethyl)amino)-6-methoxy-2-methyl-quinazolin-7-yl)oxy)nonanoyl)piperidin-4-yl)-6-fluoro-1-oxoisoindolin-2-yl)piperidine-2,6-dione]	6600	5200	5900	> 10000	> 10000
COc1cc2c(N[C@H](C)c3cccc(Br)c3)nc(C)nc2cc1OCCCCCCN1CCN(CCCc2cc3c(cc2F)C(=O)N(C2CCC(=O)NC2=O)C3)CC1 (stereo partly drawn) [Compound A42, 3-(5-(3-(4-(6-((4-(((R)-1-(3-Bromophenyl)ethyl)amino)-6-methoxy-2-methyl-quinazolin-7-yl)oxy)hexyl)piperazin-1-yl)propyl)-6-fluoro-1-oxoisoindolin-2-yl)piperidine-2,6-dione]	520	480	1000	1400	890
